For seven compounds, Ki and IC50 results are on record in patent publication US10654866B2, “Selective estrogen receptor degraders” (Eli Lilly and Company, priority 2018, dated 2020).

Test [1] deals with ERα (Y537S mutant) (Homo sapiens (Human), UniProt P03372, Y537S). The experiment in a line: ERα (Y537S mutant) competition binding assay. The following applies: 3H-estradiol competition; Ki from IC50 by Cheng-Prusoff. The procedure:
Add the test compound at 10 different concentrations ranging from 10,000 nM to 0.5 nM, and determine nonspecific binding in the presence of 1 μM of 1713 estradiol. Incubate the binding reaction (140 μL) for 4 hours at room temperature, and then add cold dextran-charcoal buffer (70 μL) (containing per 50 mL of assay buffer, 0.75 g of charcoal and 0.25 g of dextran) to each reaction. Mix the plates for 8 minutes on an orbital shaker at 4° C. and then centrifuge at 3000 rpm at 4° C. for 10 minutes. Transfer an aliquot (120 μL) of the mixture to another 96-well, white flat bottom plate (Costar) and add Perkin Elmer Optiphase Supermix scintillation fluid (175 μL) to each well. Seal the plates and shake vigorously on an orbital shaker. After an incubation of 2.5 hours, read the plates in a Wallac Microbeta counter. […] Convert the IC50 values for the compound to Ki using Cheng-Prusoff equation.

For test [2], the target named is Y537N mutant ERα receptor (Homo sapiens, UniProt P03372, Y537N). Put plainly: PRα inhibition (ERα functional antagonism) cell assay in MCF7-ESR1 Y537N 682 CRISPR cells. The class given is cell-based. The note with it: MCF7 Y537N 682 CRISPR cells, 72 hours, % PR positive cells; read-out: Relative IC50. The procedure:
An antagonist in this assay is expected to block the function of the ERα receptor.
Incubate the cells overnight in a cell culture incubator (5% CO2, 95% relative humidity and 37° C.) and allow the cells to attach to the plate. The following day dose the cells with the test compound. Use an Echo 555 acoustic dispenser to prepare compound serial dilutions (1:3) in a range from 6 μM to 0.0003 μM. Dose the cells with the addition of 5 μL from the serial dilution plate to the cell plate producing a final DMSO concentration of 0.2% with a final test compound concentration dose range between 2 and 0.0001 μM. For the maximum point use media containing 0.2% of DMSO and for the minimum point, use fulvestrant diluted at 2 μM final concentrations in the growth media containing 0.2% DMSO. After dosing with test compound, incubate the cell plates at 37° C. and 5% CO2 for 72 hours. Fix the cells by adding 14% para-formaldehyde (10 μL) for 30 minutes at room temperature. Wash the cells with PBS (1×20 μL) and incubate with PBS (20 μL) of containing 0.5% (v/v) TWEEN® 20 for 1 hour. Wash the cells with PBS (2×20 μL) 0.05% TWEEN® 20, and block with 3% BSA/PBS 0.05% TWEEN® 20, 0.1% TRITON™ X-100 (20 μL/well) for 1 hour at room temperature. Add 1:500 primary antibody (20 μL) (PR monoclonal mouse anti-human antibody, clone PgR 636 Dako, M3569) dilution in 1% BSA/PBS 0.05 TWEEN® 20 per well, seal the plates and incubate overnight at 4° C.
The following day, wash the cells with PBS […] (2×20 μL) and incubate with secondary antibody (20 μL/well) (1:1000 dilution, Goat anti-rabbit IgM ALEXA FLUOR™ 488) in PBS 1% BSA for 105 minutes at room temperature. […] Seal the plates and incubate 1 hour at room temperature on the bench (preserved from light). Scan the plates with ACUMEN EXPLORER™ [Laser-scanning fluorescence microplate cytometer manufactured by TTP LABTECH LTD] to measure PRα. Image analysis is based on cellular fluorescent signals for identifying positive cells. Identify PR positive cells by mean intensity. Use total intensity at 575-640 nm from propidium iodide/DNA to identify individual cells. Assay output is % PR positive cells. Determine the IC50 by curve fitting to a four parameter logistic for each output using GENE DATA™.

The subject of test [3] is MCF7 ESR1 Y537N mutant cells. The experiment in a line: Cell proliferation assay in MCF7-ESR1 Y537N-682. The class given is cell-based, human. The following applies: seven days; read-out: Relative IC50 (μM) MCF7 ESR1 Y537N mutant cells. The procedure: Seed MCF7 (purchased from ATCC HTB-22) cells at a density of 2,000 cells per well in DMEM phenol red free media 10% FBS (20 μL volume) (charcoal stripped) into a clear bottom 384-well cell culture plate. Plate MCF7-ESRY537N-682 (generated by CRISPR/Cas9 gene editing of ESr1 gene in MCF7 cells, clone #682) in DMEM media supplemented with 10% FBS, and 1% penicillin/streptomycin antibiotics at a density of 1000 cells per well. Incubate the plates at 37° C. and 5% CO2. The following day dose the cells with the test compound. Use an Echo 555 acoustic dispenser to prepare test compound serial dilutions (1:3) in a range from 60 μM to 0.003 μM. Dose the cells with the addition of 5 μL from the serial dilution plate to the cell plate, producing a final DMSO concentration of 0.2% with a final test compound concentration dose range between 20 and 0.001 μM. For the maximum point use media containing 0.2% of DMSO and for the minimum point use fulvestrant diluted at 2 μM final concentrations in the growth media containing 0.2% DMSO. After dosing with the test compound, incubate the cell plates at 37° C. and 5% CO2. Seven days after test compound addition, remove the plates from the incubator and add cold EtOH 96% (65 μL) to each well. […] Seal the plates and incubate 1 hour at room temperature on the bench (preserved from light). Scan the plates with ACUMEN EXPLORER™ [Laser-scanning fluorescence microplate cytometer manufactured by TTP LABTECH LTD].

Sequence of ERα (Y537S mutant) (P03372 whole entry Y537S): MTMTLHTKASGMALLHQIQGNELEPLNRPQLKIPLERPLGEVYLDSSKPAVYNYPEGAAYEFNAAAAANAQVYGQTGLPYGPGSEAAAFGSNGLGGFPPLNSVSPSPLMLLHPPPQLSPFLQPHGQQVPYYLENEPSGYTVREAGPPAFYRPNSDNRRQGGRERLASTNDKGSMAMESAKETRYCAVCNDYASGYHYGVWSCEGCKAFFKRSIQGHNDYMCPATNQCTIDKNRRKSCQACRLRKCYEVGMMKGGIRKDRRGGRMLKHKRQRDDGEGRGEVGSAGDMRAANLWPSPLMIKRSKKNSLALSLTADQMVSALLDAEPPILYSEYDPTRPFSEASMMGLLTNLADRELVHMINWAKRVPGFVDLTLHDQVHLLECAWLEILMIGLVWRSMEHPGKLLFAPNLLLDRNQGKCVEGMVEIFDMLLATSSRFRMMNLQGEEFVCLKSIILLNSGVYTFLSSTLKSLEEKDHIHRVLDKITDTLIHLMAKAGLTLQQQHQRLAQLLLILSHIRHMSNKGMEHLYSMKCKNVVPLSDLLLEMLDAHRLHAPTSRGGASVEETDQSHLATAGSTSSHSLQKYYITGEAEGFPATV

A word on the Ki: it is the equilibrium dissociation constant of an inhibitor or competing ligand from its target. A higher Ki goes with lower affinity. As usually defined, the IC50 is the concentration needed to halve the response being measured. For the compound `Oc1ccc2c3c(cnc2c1)-c1cccc(Cl)c1OC3c1ccc(OCCN2CC(CF)C2)cc1` (single isomer, unassigned) [Example 4B, 7-Chloro-5-(4-{2-[3-(fluoromethyl)azetidin-1-yl]ethoxy}phenyl)-5H-[1]benzopyrano[4,3-c]quinolin-2-ol], the Ki in test [1] was 2.34 nM. Moreover, the IC50 in test [2] is 11.8 nM; in test [3], 0.0143 ± 0.00492 µM.
The compound `Oc1ccc2c3c(cnc2c1)-c1ccc(F)cc1OC3c1ccc(OCCN2CC(CF)C2)cc1` (single isomer, unassigned) [Example 5A, 8-Fluoro-5-(4-{2-[3-(fluoromethyl)azetidin-1-yl]ethoxy}phenyl)-5H-[1]benzopyrano[4,3-c]quinolin-2-ol] gave a Ki in test [1] of 81.2 nM. In addition, the IC50 in test [2] amounted to 394 nM; in test [3] it was 0.517 ± 0.095 µM.
In turn, `Oc1ccc2c3c(cnc2c1)-c1ccc(F)cc1OC3c1ccc(OCCN2CC(CF)C2)cc1` (single isomer, unassigned) [Example 5B, 8-Fluoro-5-(4-{2-[3-(fluoromethyl)azetidin-1-yl]ethoxy}phenyl)-5H-[1]benzopyrano[4,3-c]quinolin-2-ol] returned a Ki in test [1] of 6.56 nM. In addition, the IC50 in test [2] was determined as 18.2 ± 9.82 nM; in test [3] it was 0.0213 ± 0.013 µM.
For `Oc1ccc2c3c(cnc2c1)-c1cccc(F)c1OC3c1ccc(OCCN2CC(CF)C2)cc1` (single isomer, unassigned) [Example 6A, 7-Fluoro-5-(4-{2-[3-(fluoromethyl)azetidin-1-yl]ethoxy}phenyl)-5H-[1]benzopyrano[4,3-c]quinolin-2-ol] the same measures were 46 nM, 236 nM and 0.323 ± 0.176 µM.
The matching figures for `Oc1ccc2c3c(cnc2c1)-c1cccc(F)c1OC3c1ccc(OCCN2CC(CF)C2)cc1` (single isomer, unassigned) [Example 6B, 7-Fluoro-5-(4-{2-[3-(fluoromethyl)azetidin-1-yl]ethoxy}phenyl)-5H-[1]benzopyrano[4,3-c]quinolin-2-ol]: 5.71 nM, 13.6 nM and 0.0154 µM.
`Cc1cccc2c1OC(c1ccc(OCCN3CC(CF)C3)cc1)c1c-2cnc2cc(O)ccc12` (single isomer, unassigned) [Example 8A, 5-(4-{2-[3-(Fluoromethyl)azetidin-1-yl]ethoxy}phenyl)-7-methyl-5H-[1]benzopyrano[4,3-c]quinolin-2-ol]: the Ki in test [1] stood at 66.9 nM. In addition, the concentration for half-maximal inhibition (IC50) in test [2] came out at 434 ± 195 nM; in test [3], 0.662 ± 0.117 µM.
`Cc1cccc2c1OC(c1ccc(OCCN3CC(CF)C3)cc1)c1c-2cnc2cc(O)ccc12` (single isomer, unassigned) [Example 8B, 5-(4-{2-[3-(Fluoromethyl)azetidin-1-yl]ethoxy}phenyl)-7-methyl-5H-[1]benzopyrano[4,3-c]quinolin-2-ol] came in with a Ki in test [1] of 5.44 nM. In addition, the IC50 in test [2] was 8.93 ± 3.83 nM; in test [3], 0.0142 ± 0.0111 µM.
